Laboratory results from PubChem BioAssay AID1745844 (Carcinogenic Potency Database (CPDB), 2022).
Active and inactive are the calls of the source. How the calls were made is not given here.

Test system: rodent lifetime carcinogenesis bioassay, tumor incidence TD50
Experiment: carcinogenic potency in animals, long-term in vivo studies, CPDB compilation (AID 1745844)

CC(C)NCC(O)c1ccc(NS(C)(=O)=O)cc1 (stereo not given)
TD50 (mouse, strain Charles River CD1, females, in feed, site: any site (literature study), lesion: benign tumor, dosed 78 weeks, study length 92 weeks): 1740 mg/kg/day (inactive)
carcinogen call (mouse, strain Charles River CD1, females, in feed, site: any site (literature study), lesion: malignant tumor, dosed 78 weeks, study length 92 weeks): negative (inactive)
TD50 (mouse, strain Charles River CD1, females, in feed, site: any site (literature study), lesion: several types, types named in the paper, dosed 78 weeks, study length 92 weeks): 1910 mg/kg/day (inactive)
carcinogen call (mouse, strain Charles River CD1, females, in feed, site: liver, lesion: one or several types, types not named, dosed 78 weeks, study length 92 weeks): negative (inactive)
TD50 (mouse, strain Charles River CD1, females, in feed, site: lung, lesion: adenoma, dosed 78 weeks, study length 92 weeks): 3500 mg/kg/day (inactive)
TD50 (mouse, strain Charles River CD1, females, in feed, site: lung, lesion: carcinoma, dosed 78 weeks, study length 92 weeks): 24500 mg/kg/day (inactive)
carcinogen call (mouse, strain Charles River CD1, males, in feed, site: any site (literature study), lesion: benign tumor, dosed 78 weeks, study length 92 weeks): negative (inactive)
carcinogen call (mouse, strain Charles River CD1, males, in feed, site: any site (literature study), lesion: malignant tumor, dosed 78 weeks, study length 92 weeks): negative (inactive)
carcinogen call (mouse, strain Charles River CD1, males, in feed, site: any site (literature study), lesion: several types, types named in the paper, dosed 78 weeks, study length 92 weeks): negative (inactive)
carcinogen call (mouse, strain Charles River CD1, males, in feed, site: liver, lesion: adenoma, dosed 78 weeks, study length 92 weeks): negative (inactive)
carcinogen call (mouse, strain Charles River CD1, males, in feed, site: liver, lesion: carcinoma, dosed 78 weeks, study length 92 weeks): negative (inactive)
TD50 (mouse, strain Charles River CD1, males, in feed, site: lung, lesion: adenoma, dosed 78 weeks, study length 92 weeks): 31400 mg/kg/day (inactive)
carcinogen call (mouse, strain Charles River CD1, males, in feed, site: lung, lesion: carcinoma, dosed 78 weeks, study length 92 weeks): negative (inactive)
carcinogen call (rat, strain Long-Evans, females, in feed, site: any site (literature study), lesion: benign tumor, dosed 78 weeks, study length 104 weeks): negative (inactive)
TD50 (rat, strain Long-Evans, females, in feed, site: any site (literature study), lesion: malignant tumor, dosed 78 weeks, study length 104 weeks): 1600 mg/kg/day (inactive)
TD50 (rat, strain Long-Evans, females, in feed, site: any site (literature study), lesion: several types, types named in the paper, dosed 78 weeks, study length 104 weeks): 477 mg/kg/day (inactive)
TD50 (rat, strain Long-Evans, females, in feed, site: liver, lesion: cholangioma, dosed 78 weeks, study length 104 weeks): 12600 mg/kg/day (inactive)
carcinogen call (rat, strain Long-Evans, males, in feed, site: any site (literature study), lesion: benign tumor, dosed 78 weeks, study length 104 weeks): negative (inactive)
TD50 (rat, strain Long-Evans, males, in feed, site: any site (literature study), lesion: malignant tumor, dosed 78 weeks, study length 104 weeks): 2270 mg/kg/day (inactive)
TD50 (rat, strain Long-Evans, males, in feed, site: any site (literature study), lesion: several types, types named in the paper, dosed 78 weeks, study length 104 weeks): 796 mg/kg/day (inactive)
TD50 (rat, strain Long-Evans, males, in feed, site: liver, lesion: hepatocellular adenoma, dosed 78 weeks, study length 104 weeks): 309000 mg/kg/day (inactive)
TD50 (rat, strain Long-Evans, males, in feed, site: liver, lesion: hepatocellular carcinoma, dosed 78 weeks, study length 104 weeks): 12400 mg/kg/day (inactive)

O=CCCCC=O
TD50 (mouse, strain B6C3F1, females, inhaled, site: any site (literature study), lesion: several types, types named in the paper, dosed 104 weeks, study length 105 weeks): 3.08 mg/kg/day (inactive)
carcinogen call (mouse, strain B6C3F1, females, inhaled, site: liver, lesion: one or several types, types not named, dosed 52 weeks, study length 52 weeks): negative (inactive)
carcinogen call (mouse, strain B6C3F1, females, inhaled, site: liver, lesion: one or several types, types not named, dosed 78 weeks, study length 78 weeks): negative (inactive)
TD50 (mouse, strain B6C3F1, females, inhaled, site: lung, lesion: adenocarcinoma, dosed 52 weeks, study length 52 weeks): 0.54 mg/kg/day (inactive)
TD50 (mouse, strain B6C3F1, females, inhaled, site: lung, lesion: adenocarcinoma, dosed 78 weeks, study length 78 weeks): 0.347 mg/kg/day (inactive)
TD50 (mouse, strain B6C3F1, females, inhaled, site: lung, lesion: alveolar/bronchiolar adenoma + alveolar/bronchiolar carcinoma, dosed 104 weeks, study length 105 weeks): 17.4 mg/kg/day
carcinogen call (mouse, strain B6C3F1, males, inhaled, site: any site (literature study), lesion: several types, types named in the paper, dosed 104 weeks, study length 104 weeks): negative (inactive)
carcinogen call (mouse, strain B6C3F1, males, inhaled, site: liver, lesion: hepatocellular carcinoma, dosed 52 weeks, study length 52 weeks): negative (inactive)
carcinogen call (mouse, strain B6C3F1, males, inhaled, site: liver, lesion: hepatocellular carcinoma, dosed 78 weeks, study length 78 weeks): negative (inactive)
carcinogen call (mouse, strain B6C3F1, males, inhaled, site: lung, lesion: adenocarcinoma, dosed 52 weeks, study length 52 weeks): negative (inactive)
TD50 (mouse, strain B6C3F1, males, inhaled, site: lung, lesion: adenocarcinoma, dosed 78 weeks, study length 78 weeks): 1.14 mg/kg/day (inactive)
TD50 (rat, strain Fischer 344, females, inhaled, site: any site (literature study), lesion: several types, types named in the paper, dosed 104 weeks, study length 104 weeks): 0.125 mg/kg/day (inactive)
TD50 (rat, strain Fischer 344, males, inhaled, site: any site (literature study), lesion: several types, types named in the paper, dosed 104 weeks, study length 104 weeks): 0.239 mg/kg/day (inactive)
